Results: ChEMBL document CHEMBL1144906, “Characterization of the 5-HT(7) receptor. Determination of the pharmacophore for 5-HT(7) receptor agonism and CoMFA-based modeling of the agonist binding site” (J Med Chem, 2003)
pKi: −log10 of the molar value. The source made the active and inactive calls. The rule behind the calls is not given here.

Assays:
[1] = molecular target: 5-hydroxytryptamine receptor 7 (Rattus norvegicus) (UniProt P32305); test: Agonistic activity against rat 5-HT7 adenyl cyclase expressed by HEK293 cells; type: functional, cell-based
5-hydroxytryptamine receptor 7 (Rattus norvegicus), sequence (P32305 whole entry): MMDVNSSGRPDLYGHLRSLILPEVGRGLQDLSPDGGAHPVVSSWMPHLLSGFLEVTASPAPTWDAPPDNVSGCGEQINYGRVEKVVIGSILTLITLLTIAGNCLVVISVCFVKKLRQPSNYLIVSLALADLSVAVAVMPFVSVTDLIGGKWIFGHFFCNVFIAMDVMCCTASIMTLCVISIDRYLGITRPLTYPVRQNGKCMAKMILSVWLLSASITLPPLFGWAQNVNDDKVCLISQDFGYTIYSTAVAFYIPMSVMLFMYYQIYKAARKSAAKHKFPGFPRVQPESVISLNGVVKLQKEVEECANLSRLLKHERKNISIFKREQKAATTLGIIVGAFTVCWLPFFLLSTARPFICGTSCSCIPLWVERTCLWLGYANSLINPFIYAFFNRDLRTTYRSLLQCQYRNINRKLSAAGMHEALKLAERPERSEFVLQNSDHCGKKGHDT

[2] = molecular target: 5-hydroxytryptamine receptor 7 (Rattus norvegicus, UniProt P32305); test: Binding affinity at rat 5-hydroxytryptamine 7 receptor.
5-hydroxytryptamine receptor 7, sequence (P32305 whole entry): as above

[3] = molecular target: 5-hydroxytryptamine receptor 7 (Rattus norvegicus) (UniProt P32305); test: Agonistic activity against rat 5-HT7 adenyl cyclase expressed in HEK293 cells; Active; type: functional, cell-based
[4] = molecular target: 5-hydroxytryptamine receptor 7 (Rattus norvegicus) (UniProt P32305); settings: HEK293

SMILES | Increase [1] | pKi [2] | Increase [3] | Increase [4]
CCCN(CCC)[C@@H]1CCc2cccc(OC)c2C1 | 92% | 7.47 |  | 
CCN(CC)[C@@H]1CCc2cccc(OC)c2C1 | 73% | 7.06 |  | 
COc1ccc2[nH]cc(CCN)c2c1 |  |  | Active | 
NCCc1c[nH]c2ccc(C(N)=O)cc12 | 100% |  |  | 
CCN(CC)C(=O)[C@@H]1C=C2c3cccc4[nH]cc(c34)C[C@H]2N(C)C1 |  |  | Active | 
COc1ccc2[nH]cc(CCN3CCCC3)c2c1 | 39% | 6.20 |  | 
CCCN(CCC)[C@H]1CCc2cccc(OC)c2C1 | 99% | 6.47 |  | 
CN(C)CCc1c[nH]c2ccc(O)cc12 [BUFOTENINE] |  | 8.10 | Active | 
COc1ccc2[nH]cc(CCN(C)C)c2c1 [MEBUFOTENIN] | 92% | 7.40 |  | 
COc1ccc2[nH]c(C)c(CCN(C)C)c2c1 | 17% | 5.95 |  | 
CCCN(CCC)[C@@H]1CCc2cccc(O)c2C1 |  | 7.34 | Active | 
COc1ccccc1N1CCNCC1 |  |  | Active | 
COc1ccc2c(c1)CC[C@@H](N)C2 | 58% | 5.80 |  | 
COc1ccc2cccc(N3CCNCC3)c2c1 | 25% | 7.69 |  | 
Cc1[nH]c(C)c(-c2cccc3c2CC[C@H](N(C)C)C3)c1C |  | 9.08 | Active | 
Cc1c(NC2=NCCN2)cccc1-c1ccccc1 |  |  | Active | 
c1ccc2c(N3CCNCC3)cccc2c1 |  |  | Active | 
NCCc1c[nH]c2ccc(O)cc12 |  |  |  | Active
COc1cccc2c1C[C@H](N)CC2 | 73% | 6.91 |  | 
CN(C)[C@H]1CCc2c(cccc2-c2cccc3ccccc23)C1 |  | 9.60 | Active | 
